# Measured values from patent publication US20140037625A1, “BIOMARKERS AND METHODS OF TREATMENT” (GENENTECH, INC., priority 2010, published 2014).
# Like-named read-outs stand apart in the source and are kept apart here.
# Assays:
# NSCLC patients = conditions: cited from earlier work
# [1] = test system: patients with second and third-line NSCLC; conditions: for Difference in ORR, % (95% CI): Erlotinib + MetMAb vs Erlotinib + Placebo
# Excerpt: The original protocol for this study was described, e.g., in WO2010/045345; however, the study was later modified to add enrollment of 50 patients with squamous cell histology as follows. […] During this study, patients and treating individuals, including the investigators, were blinded to the treatment assignment of study drug (MetMAb or placebo).
# During the study, data on tumor measurement and survival status were collected for evaluation of PFS, overall survival (OS) and overall response rate (ORR). CT scans were obtained at baseline and for the first four cycles at an approximately every 6 week intervals (i.e., every two three-week cycles of MetMAb/placebo). After four cycles, routine CT scans were performed approximately every 9 weeks (every 3 cycles of MetMAb/placebo). FDG-PET imaging is obtained at baseline and at Day 10-14 of Cycle 1. During the course of this study, an Image Reading facility (IRF) evaluated FDG-PET results and determined whether FDG-PET imaging should continue in all participating sites or whether FDG-PET imaging should be confined to a few sites based on data received.
# The primary outcome measure of this study was progression free survival (PFS) defined by the Response Evaluation Criteria In Solid Tumors (RECIST)) 1.0 or death from any cause within thirty days of the last treatment.
# (a) overall response (OR) (partial response plus complete response) as determined using RECIST 1.0 in Met positive tumors and overall; and
# (c) Overall survival (time from randomization until death from any cause within 30 days of the last study treatment).
# Kaplan-Meier methodology was used to estimate the median PFS for each treatment arm. The stratification factors were determined by the […] (CRF) data, not by data collected by the interactive voice […] system at the time of randomization unless the CRF data was missing. Estimation of the hazard ration (i.e., the magnitude of the treatment effect and the 95% confidence interval) was determined using a stratified Cox regression model with an indicator variable for MetMAb treatment. The same analysis methods as those described for PFS in “overall” population patients were applied to patients with met positive tumors and to patients with SCC histology. All deaths from any cause within 30 days of the last treatment were included as PFS events. Objective response was defined as a complete or partial response determined on two consecutive occasions greater than or equal to four weeks apart. Patients without a post-baseline tumor assessment were considered non-responders. An estimate of the objective response rate and 95% confidence interval (Blyth-Still-Casella) was calculated for each treatment arm. Confidence intervals for the difference in tumor response rate (Satnes and Snell 1980; Berger and Boos 1994) were calculated. For patients with an objective response, duration of objective response was defined as the time from the initial response to disease progression or death from any cause within 30 days of the last treatment. Methods for handling censoring and for analysis were the same as described for PFS. All secondary efficacy endpoints were assessed for patients with met positive tumors, patients with SCC histology and by “overall” patient population.
# [2] = test system: patients with advanced NSCLC; assay: Exploratory biomarker analyses from OAM4558g (MET FISH, mRNA by qRT-PCR) with outcome; type: in vivo, human
# Method: MET and EGFR gene copy numbers were evaluated by fluorescent in situ hybridization (FISH). […] True MET amplification was defined as tight gene cluster of greater than or equal to 15 copies of MET in greater than or equal to 10% of tumor cells or a MET/CEP7 ratio of greater than or equal to 2.
# MET, HGF, EGFR, AREG, and EREG mRNA expression was evaluated on RNA extracted from macro-dissected tumor tissue slides using the Fluidigm platform. Transcript levels were normalized to the mean of two reference genes that are stably expressed in lung tissue and results are expressed as normalized expression values (2^−ΔCt).
# Exploratory tumor biomarkers related to c-Met and/or EGFR signaling were measured by FISH, qRT-PCR or various mutation detection techniques from archival tumor tissue specimens. Plasma HGF levels were measured by ELISA. Analyses with outcome were carried out independent of Met clinical diagnostic status.
# [3] = test system: patients with second and third-line NSCLC; conditions: in vivo
# Excerpt: (§1) This study was a Phase II, double-blind, randomized, multicenter trial designed to evaluate the preliminary activity and safety of treatment with MetMAb plus Erlotinib versus Erlotinib plus placebo in second and third-line NSCLC. […] Once 120 patients, comprising the “overall” population were enrolled, eligibility was restricted to patients with squamous cell carcinoma (SCC) histology to ensure that a total of approximately 80 patients with SCC are enrolled in the study. Randomization for the first 120 patients comprising the “overall” population was stratified by smoking status (non-smokers and smokers who have quit more than 10 years ago versus current smokers and smokers who have quit less than 10 years ago), performance status and histology, and randomization for the next 50 SCC patients will be stratified by smoking status and performance status. Treatment in each arm was continued until progression of disease, unacceptable toxicity, or any other discontinuation criterion was met. Upon disease progression, patients randomized to the Erlotinib plus placebo arm were given the option to receive MetMAb (in addition to continuing Erlotinib), provided they continue to meet eligibility criteria. Safety data collected from this cross-over was summarized for hypothesis generating purposes.
# (§2) Primary and secondary efficacy analyses included all randomized patients, with patients allocated to the treatment arm to which they were randomized. Safety analyses included all randomized patients who received at least one dose of study treatment, with patients allocated to the treatment arm associated with the regimen actually received. Demographic and baseline characteristics (e.g. age and sex) were summarized using means, standard deviations, medians, and ranges for continuous variables and proportions for categorical variables, as appropriate. Summaries were presented by overall patient population and by treatment arm. The baselines value of any variable were defined as the last available value prior to the first administration of study treatment.
# (§3) The dose of MetMAb was 15 mg/kg intravenously on Day 1 of a 3-week cycle. The weight at screening was used to determine the actual dose of MetMAb. The dose of erlotinib was 150 mg by mouth each day of a 3-week cycle. Dosage level for erlotinib may have been reduced to 100 mg (first reduction) or 50 mg (second reduction) for toxicity likely attributable to erlotinib (e.g., rash, diarrhea).
# [4] = test system: patients with second and third-line NSCLC; assay: Phase II trial of MetMAb plus erlotinib versus erlotinib plus placebo: safety, disposition and exposure
# Excerpt: as §1, §2, §3
# [5] = Met High, data cut-off Jun. 8, 2010
# [6] = Met Low, data cut-off Jun. 8, 2010
# [7] = Met diagnostic negative patients, MetMAb+erlotinib vs erlotinib and placebo, data cut-off Nov. 15, 2010
# [8] = Met diagnostic positive patients, MetMAb plus erlotinib vs placebo+erlotinib, data cut-off Nov. 15, 2010
# [9] = Met diagnostic positive patients, data cut-off Nov. 15, 2010
# [10] = Met high patients, MetMAb plus erlotinib vs placebo plus erlotinib, data cut-off Jun. 8, 2010
# [11] = Met high patients, data cut-off Jun. 8, 2010
# [12] = Met low patients, ME vs erlotinib and placebo, data cut-off Jun. 8, 2010
# [13] = Overall, data cut-off Jun. 8, 2010
# [14] = overall (ITT) population, MetMAb plus erlotinib vs placebo plus erlotinib, data cut-off Jun. 8, 2010
# [15] = overall (ITT) population, MetMAb plus erlotinib vs placebo plus erlotinib, data cut-off Nov. 15, 2010
# [16] = Met Diagnostic-Negative, data cut-off Nov. 15, 2010
# [17] = Met Diagnostic-Positive, data cut-off Nov. 15, 2010
# [18] = all patients, data cut-off Jun. 8, 2010
molecule,measurement,setting,value
Nc1nc2[nH]cc(CCc3ccc(C(=O)N[C@@H](CCC(=O)O)C(=O)O)cc3)c2c(=O)[nH]1 [Pemtrexed],efficacy in SCC,"NSCLC patients; NSCLC SCC, Scagliotti et al, 2008",relatively lower efficacy
same,activity in adenocarcinoma,"NSCLC patients; NSCLC adenocarcinoma, Scagliotti et al, 2008",active
"Erlotinib + MetMAb: MetMAb (15 mg/kg IV q3wks) plus erlotinib treatment, interchangeably termed ME",overall survival treatment effect HR (unstratified Cox model),[1]; 10% Met diagnostic positive and not Met diagnostic positive using the 50% cutoff,2.83
same,overall survival treatment effect HR (unstratified Cox model),[1]; 10% Met diagnostic positive patients (>=10% tumor cells IHC 2+ or 3+),0.52
same,overall survival treatment effect HR (unstratified Cox model),[1]; 90% Met diagnostic positive patients,0.30
same,"Difference in ORR, % (95% CI)",[1]; [5],5.2 (−6.0-16.5) %
same,# pts PD by RECIST,[1]; [5],n = 17
same,No. of patients with OR (%),[1]; [5],3 (8.6) No. of patients (%)
same,Pattern of progression: PD by new lesions,[1]; [5],9 (52.9)
same,Pattern of progression: PD on target lesions,[1]; [5],11 (64.7)
same,PFS benefit by subgroup,"[1]; Met IHC status 0 and 1 patients, data cut-off Jun. 8, 2010",did not benefit
same,PFS benefit by subgroup,"[1]; Met IHC status 3 and 2 patients, data cut-off Jun. 8, 2010",showed benefit
same,# pts PD by RECIST,[1]; [6],n = 15
same,Pattern of progression: PD by new lesions,[1]; [6],7 (46.7)
same,Pattern of progression: PD on target lesions,[1]; [6],11 (73.3)
same,OS benefit by subgroup,"[1]; Met diagnostic negative IHC status 0 and 1 patients, data cut-off Nov. 15, 2010",did not benefit
same,OS HR,[1]; [7],1.78
same,PFS HR,[1]; [7],1.82
same,OS benefit by subgroup,"[1]; Met diagnostic positive IHC status 3 and 2 patients, data cut-off Nov. 15, 2010",showed benefit
same,OS Hazard ratio (HR),[1]; [8],0.37
same,PFS Hazard ratio (HR),[1]; [8],0.53
same,median OS,[1]; [9],12.6 months
same,median PFS,[1]; [9],2.9 months
same,overall survival treatment effect HR (unstratified Cox model),[1]; Met diagnostic positive using 50% cutoff,0.38
same,overall survival treatment effect HR (unstratified Cox model),[1]; Met diagnostic positive using 50% cutoff and not 90% Met diagnostic positive,0.75
same,OS benefit by subgroup,"[1]; Met high IHC status 3 and 2 patients, data cut-off Jun. 8, 2010",showed benefit
same,OS Hazard ratio (HR),[1]; [10],0.55
same,PFS Hazard ratio (HR),[1]; [10],0.56
same,median OS,[1]; [11],7.7 weeks
same,median PFS,[1]; [11],12.4 weeks
same,OS HR,"[1]; Met high population excluding patients with known EGFR mutations, relative to placebo+erlotinib, data cut-off Jun. 8, 2010",0.55
same,OS benefit by subgroup,"[1]; Met low IHC status 0 and 1 patients, data cut-off Jun. 8, 2010",did not benefit
same,OS HR,[1]; [12],3.26
same,PFS HR,[1]; [12],2.01
same,patients progressed by the first assessment (CAT scan at week 6),"[1]; Met low patients, data cut-off Jun. 8, 2010",~70%
same,patients progressed by the first assessment (CAT scan at week 6),"[1]; Met low patients, data cut-off Nov. 15, 2010",~70%
same,"Difference in ORR, % (95% CI)",[1]; [13],1.6 (−6.3-9.4) %
same,No. of patients with OR (%),[1]; [13],4 (6.3) No. of patients (%)
same,OS HR,[1]; [14],1.09
same,PFS HR,[1]; [14],1.09
same,OS Hazard ratio,[1]; [15],0.8
same,PFS Hazard ratio,[1]; [15],1.09
same,Objective response rate,"[1]; overall population, data cut-off Jun. 8, 2010",6.3%
same,outcome HR,"[2]; AREG mRNA High, MetMAb + Erlotinib vs Placebo + Erlotinib",0.77
same,outcome Median (mo),[2]; AREG mRNA Low (median 7.11),6.5 mo
same,outcome HR,"[2]; AREG mRNA Low, MetMAb + Erlotinib vs Placebo + Erlotinib",1.31
same,outcome Median (mo),[2]; EGFR mRNA High (median 7.75),7.1 mo
same,outcome HR,"[2]; EGFR mRNA High, MetMAb + Erlotinib vs Placebo + Erlotinib",1.1
same,outcome Median (mo),[2]; EGFR mRNA Low (median 7.75),11.7 mo
same,outcome HR,"[2]; EGFR mRNA Low, MetMAb + Erlotinib vs Placebo + Erlotinib",0.88
same,outcome Median (mo),[2]; EREG mRNA High (median 0.26),10.2 mo
same,outcome HR,"[2]; EREG mRNA High, MetMAb + Erlotinib vs Placebo + Erlotinib",0.67
same,outcome Median (mo),[2]; EREG mRNA Low (median 0.26),8.1 mo
same,outcome HR,"[2]; EREG mRNA Low, MetMAb + Erlotinib vs Placebo + Erlotinib",1.34
same,outcome Median (mo),[2]; MET mRNA High (median 3.16),8.7 mo
same,outcome HR,"[2]; MET mRNA High, MetMAb + Erlotinib vs Placebo + Erlotinib",0.59
same,outcome Median (mo),[2]; MET mRNA Low (median 3.16),11.7 mo
same,outcome HR,"[2]; MET mRNA Low, MetMAb + Erlotinib vs Placebo + Erlotinib",1.48
same,All adverse events: Dyspnea,[3],7 (20.0) n (%)
same,Grade 3-5 adverse events: Pneumonia,[3],1 (2.9) n (%)
same,Patient disposition: Adverse events,[3],7 (10.9) n (%)
same,Safety: tolerability,[3],well-tolerated
same,Summary of safety data: Adverse events leading to death,"[4]; Met Diagnostic Negative, data cut-off Nov. 15, 2010",3 (9.7) No. of patients (%)
same,Summary of safety data: Adverse events leading to death,"[4]; Met Diagnostic Positive, data cut-off Nov. 15, 2010",1 (2.9) No. of patients (%)
same,Patient disposition: Death,[4]; [16],2 (6.5) No. of patients (%)
same,Patient disposition: Disease progression,[4]; [16],22 (71.0) No. of patients (%)
same,Patient disposition: Death,[4]; [17],0 No. of patients (%)
same,Patient disposition: Disease progression,[4]; [17],18 (51.4) No. of patients (%)
same,Summary of safety: AEs leading to death,[4]; [5],1 (2.9) n (%)
same,All adverse events: Dyspnea,[4]; [6],4 (14.8) n (%)
same,Summary of safety: AEs leading to death,[4]; [6],4 (14.8) n (%)
same,Grade 3-5 adverse events: Pneumonia,"[4]; Met low, data cut-off Jun. 8, 2010",4 (14.8) n (%)
same,Patient disposition: Deaths,[4]; [18],2 (3.1) n (%)
same,Patient disposition: Disease progression,[4]; [18],34 (53.1) n (%)
"MetMAb: known recombinant, humanized, monovalent monoclonal antibody directed against c-met",OS HR,[2]; EGFR-wildtype patients that were Met diagnostic positive and MET FISH negative,0.45
same,outcome HR,"[2]; EGFR-wildtype patients, MET FISH positive at lower threshold ≧4 copies",0.89
same,frequency of peripheral edema in MetMAb treated arms,"[4]; both Met diagnostic positive and diagnostic negative populations, data cut-off Nov. 15, 2010",higher
bevacizumab: anti-VEGF antibody,bleeding risk,NSCLC patients; in vivo,increased bleeding risk
